Literature values as cited in patent US8030432B2, “Copolymerization of hydroxytyrosol with flavonoids mediated by horseradish peroxidases” (The United States of America as represented by the …, priority 2009, dated 2011).

Experiments:
[1] = addition of 300 mg/Kg; red meat and poultry

Substance | decomposition at room temperature | inhibition of oxidation [1]
epigallocatechin-3-gallate [EGCG] | decompose at room temperature after a few minutes | –
catechin | – | showed inhibition of oxidation
